Measurements published in patent US11174282B2, “Aminosteroid derivatives and process for producing same” (UNIVERSITÉ LAVAL, priority 2016, dated 2021).
Entries after “also recorded” stand apart in the source; their conditions may differ. Where two headings read alike, the source gives them in different places.

How the values were obtained:
[1] = system: PC-3 (prostate cancer) cells; assay: Cell proliferation assay (MTS), PC-3; assay type: cell-based; details: 72 h, read-out: IC50 (μM) Prostate cancer PC-3
Description: (§1) The different aminosteroids were dissolved in methanol (50 mM).

[2] = system: LAPC-4 (prostate cancer) cells; assay: Cell proliferation assay (MTS), LAPC-4; assay type: cell-based; details: Homo sapiens, LAPC4, 72 h, 3 days treatment, MTS; read-out: IC50 (μM) Prostate cancer LAPC-4
Description: as §1

[3] = system: LNCaP (prostate cancer) cells; assay: Cell proliferation assay (MTS), LNCaP; assay type: cell-based; details: Homo sapiens, 72 h, read-out: IC50 (μM) Prostate cancer LNCaP
Description: as §1

[4] = system: MCF-7 breast cancer cells; assay: Cell proliferation assay (MTS), MCF-7; assay type: cell-based, human; details: 3 days treatment
Description: as §1

[5] = system: T-47D breast cancer cell line; assay: Cell proliferation assay (MTS), T-47D; assay type: cell-based; details: 72 h; for IC50: Homo sapiens, T47D, 3 days treatment, MTS
Description: as §1

[6] = system: OVCAR-3 cells (ovarian cancer); assay: Cell proliferation assay (MTS), OVCAR-3; assay type: cell-based; details: Homo sapiens, OVCAR-3, 72 h, 3 days treatment, MTS; read-out: IC50 (μM) Ovarian cancer OVCAR-3
Description: as §1

[7] = system: Human pancreas cancer cells (PANC-1); assay: Cell proliferation assay (MTS), PANC-1; assay type: cell-based; details: Homo sapiens, PANC-1, 72 h, 3 days treatment, MTS; read-out: IC50 (μM) Pancreatic cancer PANC-1
Description: as §1

[8] = Water solubility; assay type: physicochemical; details: relative to RM-581-OH
[9] = Metabolic stability assay, human liver microsomes; details: 10 μM, 1 h, 40 μg human liver microsomes; result in words
Description: (§2) Assays were performed at 37° C. for 1 h, with or without 10 mM NADPH in the presence of 40 μg of human liver microsome from Corning (Melrose, Mass., USA) and 10 μM of aminosteroid substrate in a final 100 μL volume of 50 mM Tris buffer (pH 7.4) supplemented with 10 mM MgCl2. Assays were ended by adding 100 μL of MeOH followed by centrifugation at 13,000 g for 10 min to obtain a pellet of proteins. The supernatant of 2 assays was pooled and submitted to HPLC-MS analysis (Shimadzu LCMS-2020 APCI, Alltima HP C18 (250 mm×4.6 mm, 5 μm) column, MeOH:H2O gradient). Remaining substrate (expressed in %) was calculated by dividing the area under the curve of the substrate for the assays without NADPH by the area under the curve of the substrate for the assays with NADPH and multiplied by 100. Values represent the average of 2 independent experiments.

[10] = system: PANC-1, BxPC-3, Hs766, OVCAR-3, Caov3, SKOV3, MCF-7, T-47D and LAPC-4 cell lines; assay: Cytotoxic activity screening at 5 and 1 μM on cancer cell lines; details: independently of the cancer cell line tested, result in words
Description: The cell proliferation assay was performed using 3-(4,5-dimethylthiazol-2-yl)-5-(3-carboxymethoxyphenyl)2-(4-sulfophenyl)-2H-tetrazolium (MTS) (Cell Titer 96 Aqueous, Promega, Nepean, ON, Canada) as previously described [3, 4, 5]. Briefly, cells were plated in triplicate in 96-well plates (1×10^4 cells/well) in appropriate culture medium (total of 90 μL). Before each treatment, the cells were incubated at 37° C. in a 5% CO2 humidified atmosphere for 24 h. The different aminosteroids were dissolved in methanol (50 mM). The stock solutions were diluted at multiple concentrations with culture media in order to obtain the desired final concentration followed by the addition of 10 μL to each well, and the mixture incubated for 3 days. Following treatment, MTS (10 μL) was added to each well and the mixture was incubated for 4 h.

[11] = system: renal proximal tubule epithelial cells (RPTEC); assay: Toxicity on normal cells (MTS), RPTEC; assay type: cell-based, human; details: Homo sapiens, RPTEC, normal (kidney) cells; read-out: IC50 (μM) RPTEC (normal cells)
Description: as §1

[12] = system: MCF-10A cells (model for normal breast cells); assay: Cell proliferation assay (MTS), MCF-10A; assay type: cell-based
Description: A selectivity index (SI) for RM-581-102 was calculated as the ratio of its IC50 value in MCF-10A cells, a cell line used as a model for normal breast cells, versus its IC50 value in MCF-7 breast cancer cells (Table 4). […] It would thus appear that the replacement of the 5α-androstane-3α,17β-diol backbone by that of mestranol, is beneficial for the selectivity of these aminosteroid derivatives.
as §1

[13] = system: human MCF-7 breast tumors; assay: MCF-7 tumor growth (xenograft) in ovariectomized nude mice; assay type: in vivo; details: 60 mg/kg s.c., 28-day treatment
Description: FIG. 2 is an illustration of the effect of aminosteroid RM-581-102 (compound 6) on MCF-7 tumor growth. A) Effect of a 28-day treatment on 17β-estradiol (E2)-induced growth of human MCF-7 breast tumors in ovariectomized (OVX) nude mice in accordance with an embodiment of the present disclosure. Tumor sizes are expressed as the percentage of initial tumor area (day 1 of treatment=100%). Data are expressed as the mean±SEM (n=10-12 tumors and 6-7 mice per group). […] B) Initial and final body weight of the mice.

[14] = human, microsomes, 1 h, 10 μM, pH 7.4
Description: as §2

[15] = in vivo; details: female, Balb/c, mouse
Description: The plasmatic concentration (AUC) of RM-581-102 was determined following four different methods of administration (s.c., p.o., i.v. and i.p.) at the following concentrations: 60 mg/kg of body weight in 0.1 mL for s.c. and p.o. administration; 2 mg/kg of body weight in 0.02 mL for i.v. caudal administration; and 20 mg/kg of body weight in 0.1 mL for i.p. administration. For the s.c., p.o. and i.p. administrations, RM-581-102 was first dissolved in DMSO followed by the addition of propylene glycol to obtain a final concentration of DMSO of 8%. Regarding the i.v. administration, RM-581-102 was first dissolved in DMSO (8%) followed by the addition of DMA (38%) and propylene glycol (60%). For the i.v. administration, the mice were fasted over a period of 8 h before injection of RM-581-102.
Animals: Six to seven week-old female Balb/c mice weighing approximately 18 g were obtained from Charles-River, Inc (St-Constant, Qc., Canada). The animals were acclimatized to environmental conditions (temperature: 22±3° C.; humidity: 50±20%; 12-h light/12-h dark cycles, lights on at 07:15 h) for at least 5 days before starting the experiment. The animals were housed three per cage and were allowed free access to water and a certified commercial rodent food (Rodent diet #T.2018.15, Harlan Teklad, Madison, Wis., U.S.A.). The experiments with the animals were conducted in an animal facility approved by the Canadian Council on Animal Care (CCAC) and the Association for Assessment and Accreditation of Laboratory Animal Care. The study was performed in accordance with the CCAC Guide for Care and Use of Experimental Animals. Institutional approval was obtained.
Assay: The pharmacokinetic study was carried out following four different methods of administration (s.c., p.o., i.v. and i.p.) of RM-581-102 at the following concentrations: 60 mg/kg of body weight in 0.1 mL for s.c. and p.o. administration; 2 mg/kg of body weight in 0.02 mL for i.v. caudal administration; and 20 mg/kg of body weight in 0.1 mL for i.p. administration. For the s.c., p.o. and i.p. administrations, RM-581-102 was first dissolved in DMSO followed by the addition of propylene glycol to obtain a final concentration of DMSO of 8%. Regarding the i.v. administration, RM-581-102 was first dissolved in DMSO (8%) followed by the addition of DMA (38%) and propylene glycol (60%). For the i.v. administration, the mice were fasted over a period of 8 h before injection of RM-581-102. Blood samples for the determination of RM-581-102 plasma concentrations were collected by cardiac puncture at target intervals ranging from 5 minutes to 24 hours post-dose administration from 3 mice/time point. The blood samples were collected in Microvette® potassium-EDTA (ethylenediamine tetra-acetic acid)-coated tubes (Sarstedt AG & Co, Germany) and centrifuged at 3200 rpm for 10 minutes at 4° C. The plasma was subsequently collected and stored at −80° C. until analysis by liquid chromatography/mass spectrometry/mass spectrometry (LC/MS/MS).
The plasma concentrations of RM-581-102 was determined by LC/MS/MS analysis using a procedure developed at CHUQ (CHUL)—Research Center (Bioanalytical Service). For extraction from the plasma, a plasma sample (100 μL) was transferred to individual tubes and 600 μL of ammonium acetate (1 mM) was added. A methanolic solution (50 μL) containing a deuterated steroid internal standard was then added to each tube. Samples were then transferred on Strata-X SPE columns (Phenomenex, Torrance, Calif., USA) and each column was washed with water and methanol:water (10:90, v/v). RM-581-102 was then eluted with 5 mL of methanol containing 1 mM ammonium acetate.

C#C[C@@]1(O)CC[C@H]2[C@@H]3CCc4cc(OP(=O)(O)O)c(N5CCN(C(=O)[C@@H]6CCCN6C(=O)c6ccc7ccccc7n6)CC5)cc4[C@H]3CC[C@@]21C [Compound 5, (17β)-17-ethynyl-17-hydroxy-2-{4-[1-(quinolin-2-ylcarbonyl)-L-prolyl]piperazin-1-yl}estra-1,3,5(10)-trien-3-yl dihydrogen phosphate]
IC50 [1]: 1.3 ± 0.05 µM | IC50 [2]: 0.3 ± 0.07 µM | IC50 [3]: 0.6 ± 0.05 µM | IC50 ([4]; Homo sapiens, MCF7, 72 h): 1.5 ± 0.3 µM | IC50 [5]: 0.3 ± 0.05 µM | IC50 [6]: 4.6 ± 0.7 µM | IC50 [7]: 2.6 ± 0.1 µM | water solubility [8]: significant enhancement of water solubility | metabolic stability (% of remaining compound) [9]: stability similar to its phenolic counterpart | cytotoxic activity in screening (cell survival) [10]: without adversely affecting the antiproliferative properties; also recorded: only slight differences in their respective levels of activity

C#C[C@]1(O)CC[C@H]2[C@@H]3CCc4cc(OC)c(N5CCN(C(=O)[C@@H]6CCCN6C(=O)c6ccc7ccccc7n6)CC5)cc4[C@H]3CC[C@@]21C [RM-581, {4-[17α-Ethynyl-17I-hydroxy-3-methoxyestra-1,3,5(10)-trien-2-yl]piperazin-1-yl}[(2S)-1-(quinolin-2-ylcarbonyl)pyrrolidin-2-yl]methanone]
IC50 ([1]; 3 days treatment, MTS): 1.6 ± 0.3 µM | IC50 [2]: 0.6 ± 0.3 µM | IC50 ([3]; 3 days treatment, MTS): 1.2 ± 0.6 µM | IC50 [4]: 2.6 ± 0.3 µM | IC50 ([4]; listed as RM-581-102): 1.1 ± 0.1 µM | IC50 [5]: 0.5 ± 0.05 µM | cytotoxic activity compared with known antineoplastic agents ([5]; T-47D, 1.0 and 5 μM, vs paclitaxel, gemcitabine, fluorouacil, oxaliplatin, irinotecan): stronger cytotoxic activities at both concentrations | IC50 [6]: 5 ± 0.5 µM | IC50 [7]: 3.9 ± 0.9 µM | IC50 [11]: > 50 µM | IC50 ([12]; Homo sapiens, MCF-10A, model for normal breast cells): 16.8 µM | times more selective compared to RM-133 ([12]; in vitro MCF-7 and MCF-10A cell models): 5.1 times | Selectivity Index ([12]; ratio of IC50 in MCF-10A cells versus IC50 in MCF-7 cells): 15.3 | behavioral changes, signs of toxicity and weight loss ([13]; compared with control groups): no behavioral changes, signs of toxicity and weight loss | MCF-7 tumor growth (tumor size, % of initial tumor area) ([13]; 6 days per week, E2-stimulated OVX nude mice): complete blockade of tumor growth; also recorded: significant tumor regression from day 21 up to day 28 | metabolic stability (% of remaining compound) [14]: significantly more stable toward phase-I hepatic metabolism than RM-133 | AUC(0-t) ([15]; ip, 20 mg/kg): 11400 ng·h/mL | concentration at 3 h ([15]; ip, 20 mg/kg): 5300 ng/mL | AUC(0-t) ([15]; iv, 2 mg/kg): 595 ng·h/mL | concentration at 3 h ([15]; iv, 2 mg/kg): 300 ng/mL | AUC(0-t) ([15]; po, 60 mg/kg): 5540 ng·h/mL | concentration at 3 h ([15]; po, 60 mg/kg): 550 ng/mL | AUC(0-t) ([15]; sc, 60 mg/kg): 7760 ng·h/mL | concentration at 3 h ([15]; sc, 60 mg/kg): 600 ng/mL
